Source: patent publication US20050164951A1, “Inhibitors for the soluble epoxide hydrolase” (The Regents of the University of California, priority 2003, published 2005)
Entries after “also recorded” stand apart in the source; their conditions may differ. Blank lines part the entries; values can stand above or below the compound they belong to.

Columns and labels:
[1] = Metabolic stability in rat hepatic microsomes with NADPH generating system; format: in vitro ADME
Procedure: FIG. 6 is a graph illustrating the metabolic stabilities of 1-adamantyl-3-dodecyl urea (686) and 1-cyclohexyl-3-dodecyl urea (297) in rat hepatic microsomes. Microsomes were incubated with 1 μM 686 or 297 in the presence of an NADPH generating system. Data are expressed as mean ±SD of triplicate experiments.
To evaluate the metabolic stability of these inhibitors, the microsomal and NADPH dependent metabolism of a number of potent sEH inhibitors was evaluated. […] The first step in the metabolic transformation of the n-alkyl to n-alkanoic acid derivatives is an NAPDH dependent process carried out by cytochrome P450 dependent omega hydroxylation in rodent and human hepatic tissue preparations (see FIG. 8). When in vivo metabolism was evaluated, evidence for the beta-oxidation of the alkanoic acid derivatives was also found (see FIG. 9).

[2] = target: T1, human sEH (Homo sapiens, UniProt P34913); assay: Inhibition of recombinant human sEH, IC50 assay with 4-nitrophenyl-trans-2,3-epoxy-3-phenylpropyl carbonate as substrate; format: biochemical; details: Table 2; […] enzyme, 5 min preincubation, pH 7.4, 30° C.; means ± SD; read-out: IC50 (μM) Human sEH
T1 construct: made in house; host or cells: baculovirus expression system
T1 sequence (P34913 1-555): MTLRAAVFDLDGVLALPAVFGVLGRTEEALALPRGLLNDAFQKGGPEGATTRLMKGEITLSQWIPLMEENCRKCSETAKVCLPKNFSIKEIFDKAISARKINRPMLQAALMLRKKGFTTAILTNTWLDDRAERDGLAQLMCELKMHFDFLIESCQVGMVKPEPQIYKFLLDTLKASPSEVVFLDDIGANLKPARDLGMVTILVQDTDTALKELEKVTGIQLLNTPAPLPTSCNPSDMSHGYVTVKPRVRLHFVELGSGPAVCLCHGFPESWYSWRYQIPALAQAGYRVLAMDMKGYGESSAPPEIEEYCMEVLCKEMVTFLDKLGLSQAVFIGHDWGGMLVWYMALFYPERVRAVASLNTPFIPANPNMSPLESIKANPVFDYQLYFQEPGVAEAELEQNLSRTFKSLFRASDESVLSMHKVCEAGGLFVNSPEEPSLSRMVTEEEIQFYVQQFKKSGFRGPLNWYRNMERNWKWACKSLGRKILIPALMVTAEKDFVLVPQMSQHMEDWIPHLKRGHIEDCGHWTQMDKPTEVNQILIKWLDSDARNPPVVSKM
Procedure: (§1) Assays were performed in triplicate. […] The curve was generated from at least three separate runs, each in triplicate, to obtain the standard deviation (SD) given in Table 1 thru Table 4.

[3] = Cream on index finger of a patient with Raynaud syndrome before cold exposure; format: in vivo, human; details: cream applied to a finger before cold exposure
Procedure: The experimental design involved preparing the Vanicream solutions with ethanol with or without active compound, then covering the syringe barrels with aluminum foil. The compounds were applied in a bind fashion approximately 20 minutes before exposure and then the hands were exposed to cold for approximately 30 minutes and the results recorded. The following day the results were decoded. Treatments (left or right index finger) were random. […] The test compounds were dissolved in ethanol at a concentration of 10 mg/mL and this in turn mixed with commercial Vanicream at a 10:1 concentration to give 1 mg/mL final concentration of active ingredient in the Vanicream/ethanol mixture. Approximately 100 μL of cream (±sEH inhibitor) were applied to a single finger. The first two columns indicate that over a range of exposure conditions the results from the left and right […] were similar. […] Since the experiment was run blind, the left and right index fingers were treated in a random fashion. For convenience the treatments are shown on the right in each case. […]

[4] = Pharmacokinetics after oral gavage in mice; format: in vivo, mouse; details: 5 mg/kg orally
Procedure: Animals. Male Swiss Webster mice, 6 weeks-old, were obtained from Charles River (Calif., USA). […] The body weight of animals used in all the experiments ranged from 28 g to 38 g. […] Administration and measurement. […] Then the samples were centrifuged at 6000 rpm for 5 min, and the ethyl acetate layer was dried under nitrogen. The residue was reconstituted in 25 μL of methanol, and aliquots (5 μL) were injected onto the LC-MS/MS system. Analysis. Pharmacokinetics analysis was performed using SigmaPlot software system (SPSS science, Chicago, Ill.). […] AUC=a/b Where: • C=the total blood concentration at time t • a=the extrapolated zero intercept b=the apparent first-order elimination rate constant

[5] = Water solubility; format: physicochemical; details: 772 vs. 789, 791 vs. 790, 297 vs. 686
[6] = target: T2, mouse sEH (Mus musculus, UniProt P34914); assay: Inhibition of recombinant mouse sEH, IC50 assay with 4-nitrophenyl-trans-2,3-epoxy-3-phenylpropyl carbonate as substrate; format: biochemical; details: Table 2; 0.12 μM enzyme, 5 min preincubation, pH 7.4, 30° C.; means ± SD; read-out: IC50 (μM) Mouse sEH
T2 construct: made in house; host or cells: baculovirus expression system
T2 sequence (P34914 1-554): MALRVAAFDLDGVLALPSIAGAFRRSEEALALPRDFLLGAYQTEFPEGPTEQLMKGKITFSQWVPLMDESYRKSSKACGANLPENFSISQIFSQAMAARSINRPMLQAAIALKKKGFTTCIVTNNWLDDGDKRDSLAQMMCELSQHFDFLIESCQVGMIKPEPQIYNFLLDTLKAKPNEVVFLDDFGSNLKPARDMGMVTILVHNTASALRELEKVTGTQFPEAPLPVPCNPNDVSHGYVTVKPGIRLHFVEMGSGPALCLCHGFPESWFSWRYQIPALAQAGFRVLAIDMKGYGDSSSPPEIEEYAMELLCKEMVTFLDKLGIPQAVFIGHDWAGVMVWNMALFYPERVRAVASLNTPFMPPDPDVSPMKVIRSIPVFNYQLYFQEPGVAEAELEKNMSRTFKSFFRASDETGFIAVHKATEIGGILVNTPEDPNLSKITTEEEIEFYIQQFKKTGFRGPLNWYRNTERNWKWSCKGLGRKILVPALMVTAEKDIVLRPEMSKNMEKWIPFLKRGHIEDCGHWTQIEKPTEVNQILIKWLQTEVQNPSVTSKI
Procedure: as §1

[7] = Pharmacokinetics of 687 and 800 in a human subject; format: in vivo; details: FIG. 11; single oral administration of either 687 or 800 to a human subject
Procedure: (§2) Serial bled blood samples (3-50 μL) were collected from finger tips into 50 μL heparinized capillary tube at various time points (0.5, 1, 2, 4, 6, 12 and 24 hr) after administration. These samples were used to measure parent compounds and their metabolites using LC-MS/MS as described above for experiments with mice. Blood samples were added 400 μL of distilled water and 25 μL of internal standard (500 ng/mL CTU), and vortexed. The blood samples were then extracted with 500 μL of ethyl acetate twice and the ethyl acetate layer was dried under nitrogen. The residue was reconstituted in 25 μL of methanol, and aliquots (10 μL) were injected onto the LC-MS/MS system as described above. Biological end points came from clinical chemistry samples run at The University of California Davis Clinical Laboratory and a series of 6 inflammatory markers including C reactive protein were run blind at the University of California Davis Department of Nephrology.

[8] = system: linoleate and arachidonate derived epoxides and diols; assay: Urinary oxylipins in angiotensin II infused rats; format: in vivo, rat; details: ANGII infused Sprague-Dawley rats, subcutaneous injection, urine 24 hr post exposure, LC/MS/MS
Text: In this example, hypertension was induced in one group of Sprague-Dawley rats by the infusion of angiotensin II (ANGII).

[9] = Oral AUDA butyl ester (800) in a patient with end stage renal disease: clinical chemistry, C reactive protein, blood pressure; format: in vivo, human
Procedure: as §2, with “These” for “Serial bled blood samples (3-50 μL) were collected from finger tips into 50 μL heparinized capillary tube at various time points (0.5, 1, 2, 4, 6, 12 and 24 hr) after administration. These”

[10] = Blood concentration after oral administration of 950 and AUDA-nBE, human pharmacokinetic profile; format: in vivo
Procedure: FIG. 16 provides a sample preparation procedure for a pharmacokinetic study. A 5 μl whole blood sample was drawn into a capillary at a specific time point, each sample was extracted and anaylzed by LC/MS-MS. […] AUDA is the active metabolite of AUDA-nBE. […] 0.05 mg/kg. (B). 0.1 mg/kg. […] The compounds were administered at the same time in the same formulation. […] 21 mg (0.3 mg/kg) 950 and AUDA-nBE were orally administrated with starch. (B). 7 mg (0.1 mg/kg) formulated 950 and AUDA-NBE were taken with (HPMC, starch and lactose). (C). […] 950 with HPMC and Starch. (B). 950 in lactose and HPMC. […] HPMC forms a gel which slowly erodes; lactose enhances erosion at it moves through the gut and starch retards it. These formulations are combined, ball milled, and then placed in ‘0’ capsule and not compressed.

[11] = format: in vitro ADME, rat and human
Text: Both rat and human microsomes were used for the 950 metabolism study.

[12] = Effect of compound 950 and of Norvasc on blood pressure; format: in vivo; details: 950 0.05 mg/Kg per day

metabolic stability in microsomal preparations ([1]; rat, microsomes): improved stability
Structure (SMILES): O=C(NC1CCCCC1)NC12CC3CC(CC(C3)C1)C2 [Compound 192, 1-adamantyl-3-cyclohexylurea]

Structure (SMILES): CCCCCCCCCCCCNC(=O)NC1CCCCC1 [Compound 297, 1-cyclohexyl-3-dodecyl urea, reference compound]
IC50 [2]: 0.14 ± 0.01 µM
effect on Raynaud's symptoms [3]: reduces severity of Raynaud's symptoms

time to reach the maximum concentration [4]: 2 h
IC50 [2]: 0.1 ± 0.01 µM
solubility relative to the corresponding cyclohexyl derivative [5]: approximately 2 x
IC50 [6]: 0.05 ± 0.01 µM
Structure (SMILES): CCCCCCCCCCCCNC(=O)NC12CC3CC(CC(C3)C1)C2 [Compound 686, 1-adamantyl-3-dodecylurea, reference compound]

time to reach the maximum concentration [4]: 0.5 h
maximum circulating concentration of 687, humans compared with mice [7]: much higher in humans
metabolic stability in microsomal preparations ([1]; 1 μM, NADPH generating system, FIGS. 6 and 7): stable
Structure (SMILES): O=C(O)CCCCCCCCCCCNC(=O)NC12CC3CC(CC(C3)C1)C2 [Compound 687, 1-(1-adamantyl)-3-(12-dodecanoic acid)urea]
urinary diol concentrations (DHOMEs, DHETs) [8]: decrease in diol concentrations
urinary epoxides (EpOMEs, EETs) [8]: increase in urinary epoxides

Structure (SMILES): CCCCOC(=O)CCCCCCCCCCCNC(=O)NC12CC3CC(CC(C3)C1)C2 [Compound 800, 1-(1-Adamantyl)-3-(11-butoxycarbonylundecyl)urea]
serum profile of regulatory lipids ([9]; patient approaching ESRD, brief oral treatment with low doses): altered the serum profile of regulatory lipids in a positive manner
Creatinine ([9]; same trial, ESRD without drug 5.0, normal 0.5-1.3): 4.9 mg/dL
Cmax ([10]; FIG. 23, 7mg each in tristerate (0.1 mg/kg) orally, human): rather high Cmax
performance of simple dry formulations ([10]; FIG. 26, starch, HPMC/starch/lactose or lactose, 0.1-0.3 mg/kg orally): very poorly
absorption depending on formulation ([10]; FIGS. 23 and 26, oral, human, listed as AUDA-BE): only absorbed efficiently in a lipid formulation; also recorded: bioavailable in lipid formulations

T1/2 compared with AUDA-BE ([10]; human, in vivo, po, 0.1 mg/kg): longer T1/2
pharmacokinetics ([10]; in vivo): improved pharmacokinetics
Structure (SMILES): CCOCCOCCOCCCCCNC(=O)NC12CC3CC(CC(C3)C1)C2 [Compound 950]
major metabolite in vitro [11]: hydroxy metabolite was the major metabolite

Structure (SMILES): CCOC(=O)C1=C(COCCN)NC(C)=C(C(=O)OC)C1c1ccccc1Cl (centres unmarked) [Norvasc]
Systolic Avg. ([12]; Norvasc 5.0 mg per day (separate experiment), W/O 950 151, W/O Norvasc 145): 143
Pulse Avg. ([12]; Norvasc 5.0 mg per day, W/O 950 97, W/O Norvasc 79): 89
Diastolic Avg. ([12]; Norvasc 5.0 mg per day, W/O 950 103, W/O Norvasc 100): 95
